Drawing on PMC6704710, “Preclinical evaluation of 3D185, a novel potent inhibitor of FGFR1/2/3 and CSF-1R, in FGFR-dependent and macrophage-dominant cancer models” (Journal of Experimental & Clinical Cancer Research : CR, 2019), this text covers inhibition for 1 molecule.

Common to all, as to test: Eurofins kinase panel
Type in all cases: biochemical
What all share (settings): read-out: Inhibition rate (%)

In one assay the target is T1, Met(Y1248H)(h) (Homo sapiens, UniProt P08581, Y1230H).
T1 construct: purchased Eurofins (KinaseProfiler)
T1 sequence (P08581 956-1390 Y1230H limits assumed): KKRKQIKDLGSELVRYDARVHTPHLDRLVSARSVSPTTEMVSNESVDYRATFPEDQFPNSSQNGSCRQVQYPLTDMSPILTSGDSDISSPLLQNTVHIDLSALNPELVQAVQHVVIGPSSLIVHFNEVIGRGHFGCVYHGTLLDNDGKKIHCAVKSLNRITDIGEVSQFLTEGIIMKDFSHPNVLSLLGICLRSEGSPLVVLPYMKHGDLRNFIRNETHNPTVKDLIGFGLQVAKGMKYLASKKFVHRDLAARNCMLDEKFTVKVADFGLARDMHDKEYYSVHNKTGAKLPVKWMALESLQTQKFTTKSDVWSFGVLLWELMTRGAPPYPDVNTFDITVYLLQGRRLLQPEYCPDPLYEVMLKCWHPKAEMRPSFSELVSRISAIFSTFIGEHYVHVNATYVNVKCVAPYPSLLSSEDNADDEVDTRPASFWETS

The next assay concerns the target T2, EGFR(T790M,L858R)(h) (Homo sapiens, UniProt P00533, L858R/T790M).
T2 construct: purchased Eurofins (KinaseProfiler)

Another assay concerns the target T3, CK1γ3(h) (Homo sapiens, UniProt Q9Y6M4).
T3 construct: purchased Eurofins (KinaseProfiler)

Another assay addresses T4, TAO2(h) (Homo sapiens, UniProt Q9UL54).
T4 construct: purchased Eurofins (KinaseProfiler)
T4 sequence (Q9UL54 1-1235): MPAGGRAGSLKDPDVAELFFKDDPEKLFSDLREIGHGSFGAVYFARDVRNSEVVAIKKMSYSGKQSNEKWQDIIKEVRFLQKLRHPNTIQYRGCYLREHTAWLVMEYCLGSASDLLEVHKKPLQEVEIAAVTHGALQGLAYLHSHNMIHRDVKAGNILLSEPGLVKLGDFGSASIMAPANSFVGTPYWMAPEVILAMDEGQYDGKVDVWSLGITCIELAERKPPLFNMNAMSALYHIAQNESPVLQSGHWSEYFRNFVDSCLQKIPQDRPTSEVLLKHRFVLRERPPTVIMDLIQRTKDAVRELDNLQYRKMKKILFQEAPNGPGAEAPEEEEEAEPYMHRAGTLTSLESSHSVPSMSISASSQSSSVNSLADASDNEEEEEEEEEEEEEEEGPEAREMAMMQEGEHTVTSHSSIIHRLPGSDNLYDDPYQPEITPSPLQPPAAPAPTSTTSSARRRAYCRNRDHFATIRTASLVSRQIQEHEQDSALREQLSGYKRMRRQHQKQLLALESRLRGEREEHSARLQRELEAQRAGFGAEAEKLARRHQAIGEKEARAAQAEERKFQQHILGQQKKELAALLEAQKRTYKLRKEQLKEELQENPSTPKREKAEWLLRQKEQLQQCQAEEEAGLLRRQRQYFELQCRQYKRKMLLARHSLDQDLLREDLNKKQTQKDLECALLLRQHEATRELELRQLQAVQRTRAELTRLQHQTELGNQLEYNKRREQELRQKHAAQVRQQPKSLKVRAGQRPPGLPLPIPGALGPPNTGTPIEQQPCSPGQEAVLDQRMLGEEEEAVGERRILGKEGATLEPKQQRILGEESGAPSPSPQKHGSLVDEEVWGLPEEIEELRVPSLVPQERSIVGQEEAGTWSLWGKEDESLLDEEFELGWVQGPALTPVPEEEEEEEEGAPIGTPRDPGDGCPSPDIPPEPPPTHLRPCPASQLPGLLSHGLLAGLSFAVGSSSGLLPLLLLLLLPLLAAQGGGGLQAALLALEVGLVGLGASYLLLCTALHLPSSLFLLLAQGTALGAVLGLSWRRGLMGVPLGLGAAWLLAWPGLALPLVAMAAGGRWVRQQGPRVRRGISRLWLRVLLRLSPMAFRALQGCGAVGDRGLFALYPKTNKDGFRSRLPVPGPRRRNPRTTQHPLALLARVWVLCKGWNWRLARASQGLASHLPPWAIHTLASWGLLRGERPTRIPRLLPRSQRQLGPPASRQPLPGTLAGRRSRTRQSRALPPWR

Another assay concerns the target T5, NLK(h) (Homo sapiens, UniProt Q9UBE8).
T5 construct: purchased Eurofins (KinaseProfiler)
T5 sequence (Q9UBE8 1-527): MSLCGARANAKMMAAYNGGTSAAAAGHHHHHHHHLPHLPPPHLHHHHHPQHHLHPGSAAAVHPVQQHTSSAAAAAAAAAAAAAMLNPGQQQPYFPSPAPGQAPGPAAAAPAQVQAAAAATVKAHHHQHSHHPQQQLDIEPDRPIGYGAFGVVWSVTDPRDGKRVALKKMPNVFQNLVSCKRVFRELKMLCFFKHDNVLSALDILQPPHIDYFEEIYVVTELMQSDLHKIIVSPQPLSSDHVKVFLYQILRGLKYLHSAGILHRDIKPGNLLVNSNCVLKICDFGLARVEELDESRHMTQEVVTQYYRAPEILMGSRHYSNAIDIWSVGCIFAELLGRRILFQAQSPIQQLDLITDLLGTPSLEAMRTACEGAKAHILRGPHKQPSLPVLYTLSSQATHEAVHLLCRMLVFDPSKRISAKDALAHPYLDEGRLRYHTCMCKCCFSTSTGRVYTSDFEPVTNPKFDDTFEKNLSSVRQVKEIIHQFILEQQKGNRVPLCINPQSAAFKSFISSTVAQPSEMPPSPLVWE

T3 sequence (Q9Y6M4 whole entry): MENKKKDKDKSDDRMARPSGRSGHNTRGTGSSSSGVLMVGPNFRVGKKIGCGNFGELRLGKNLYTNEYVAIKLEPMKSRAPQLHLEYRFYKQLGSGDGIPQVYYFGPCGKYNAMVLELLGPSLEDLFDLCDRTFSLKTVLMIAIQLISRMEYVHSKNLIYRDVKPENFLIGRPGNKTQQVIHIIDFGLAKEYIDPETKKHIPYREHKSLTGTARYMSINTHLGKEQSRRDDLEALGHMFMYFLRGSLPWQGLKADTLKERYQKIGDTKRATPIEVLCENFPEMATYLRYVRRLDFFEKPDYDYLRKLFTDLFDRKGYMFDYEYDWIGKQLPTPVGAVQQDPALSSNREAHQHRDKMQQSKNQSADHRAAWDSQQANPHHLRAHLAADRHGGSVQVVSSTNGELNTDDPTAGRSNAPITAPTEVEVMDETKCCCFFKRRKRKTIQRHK
T2 sequence (P00533 25-1210 T790M/L858R): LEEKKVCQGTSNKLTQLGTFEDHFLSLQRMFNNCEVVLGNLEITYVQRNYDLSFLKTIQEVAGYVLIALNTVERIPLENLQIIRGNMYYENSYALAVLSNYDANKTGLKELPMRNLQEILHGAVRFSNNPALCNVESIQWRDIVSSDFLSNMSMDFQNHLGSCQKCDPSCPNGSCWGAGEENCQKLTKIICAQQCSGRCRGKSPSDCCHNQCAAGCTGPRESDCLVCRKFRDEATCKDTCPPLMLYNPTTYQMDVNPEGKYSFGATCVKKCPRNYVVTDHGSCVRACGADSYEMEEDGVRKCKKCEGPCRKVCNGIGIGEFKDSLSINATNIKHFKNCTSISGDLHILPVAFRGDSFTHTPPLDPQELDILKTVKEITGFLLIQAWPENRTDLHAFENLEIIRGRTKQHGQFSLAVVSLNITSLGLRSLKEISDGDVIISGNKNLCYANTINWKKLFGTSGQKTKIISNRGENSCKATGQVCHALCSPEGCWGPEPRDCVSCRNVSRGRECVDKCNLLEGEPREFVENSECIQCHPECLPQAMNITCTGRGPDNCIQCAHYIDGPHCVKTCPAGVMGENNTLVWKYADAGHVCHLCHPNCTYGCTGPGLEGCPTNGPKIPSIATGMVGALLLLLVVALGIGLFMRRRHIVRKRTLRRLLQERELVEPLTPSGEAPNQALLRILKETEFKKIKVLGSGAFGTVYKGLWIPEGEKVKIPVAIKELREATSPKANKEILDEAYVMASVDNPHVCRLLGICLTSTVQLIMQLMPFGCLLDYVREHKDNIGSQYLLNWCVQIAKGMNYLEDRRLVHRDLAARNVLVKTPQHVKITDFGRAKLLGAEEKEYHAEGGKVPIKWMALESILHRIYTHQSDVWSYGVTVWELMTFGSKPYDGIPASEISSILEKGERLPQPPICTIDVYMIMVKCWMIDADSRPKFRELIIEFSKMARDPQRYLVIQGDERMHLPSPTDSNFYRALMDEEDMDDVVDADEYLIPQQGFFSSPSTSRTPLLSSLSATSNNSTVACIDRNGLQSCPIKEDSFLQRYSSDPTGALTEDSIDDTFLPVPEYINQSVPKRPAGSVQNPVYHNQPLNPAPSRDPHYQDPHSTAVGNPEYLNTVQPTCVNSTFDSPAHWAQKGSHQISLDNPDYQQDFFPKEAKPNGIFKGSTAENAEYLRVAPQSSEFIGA

Regarding `COc1cc(OC)c(Cl)c(-c2ccc3c(NC(=O)c4ccc(N5CCNC(C)(C)C5)cc4)n[nH]c3n2)c1Cl` [3D185], the inhibition at 0.01 µM on Met(Y1248H)(h) (10 nM) was -16%; at EGFR(T790M,L858R)(h) (10 nM) it was 6%; on CK1γ3(h) (10 nM), 1%; on TAO2(h) (10 nM), 12%; at NLK(h) (10 nM) it was 0%. Moreover, the inhibition at 0.1 µM at Met(Y1248H)(h) (100 nM) is 8%; at EGFR(T790M,L858R)(h) (100 nM) it was 38%; on CK1γ3(h) (100 nM), -10%; on TAO2(h) (100 nM), 28%; at NLK(h) (100 nM) it was -6%. In addition, the inhibition at 1 µM on Met(Y1248H)(h) (1000 nM) turned out to be 46%; at EGFR(T790M,L858R)(h) (1000 nM), 79%; at CK1γ3(h) (1000 nM), 12%; at TAO2(h) (1000 nM), 66%; at NLK(h) (1000 nM), 3%.

Usually inhibition stands for the drop in the measured response relative to a control, in per cent.
